Test results as given in US11439646B2, “Anti-proliferative agents for treating PAH” (Pfizer Inc., priority 2016, dated 2022).

What was measured:
[1] = system: Rat MCT-induced PAH Model; experiment: Rat MCT-induced PAH model (hemodynamics, histomorphometry, IHC); format: in vivo
Experimental: Rat MCT-induced PAH Model: Male Sprague-Dawley rats (Charles River Laboratories) (260-280 g; vehicle control group, n=6; all other groups, n=15) received MCT (50 mg/kg, SC; 1 ml/kg BVV) dissolved in vehicle (33.3% 1 N HCl, 14.8% 1 N NaOH, 52.2% diH2O) or vehicle alone on day 0. Sildenafil (50 mg/kg/dose; BID) was administered (5 ml/kg, PO) either prophylactically from days 0-28 or therapeutically from days 14-28. Palbociclib (100 mg/kg; QD) was administered therapeutically (days 14-28). Both sildenafil and palbociclib were resuspended in vehicle (0.5% methylcellulose) and administered orally (5 ml/kg). On day 28, animals were anesthetized via isoflurane, hemodynamic parameters were evaluated, and tissues harvested after euthanasia.
Hemodynamic measurements—monocrotaline (MCT) study: On day 28, animals were anesthetized via 2% isofluorane in positive pressure ventilator. Pulmonary hemodynamics were measured using a pre-calibrated pressure transducer in isoflurane positive-pressure ventilated animals. Steady-state pulmonary and systemic arterial pressures were measured using a Millar Solid State Mikro-tip catheter (Millar Instruments, Houston, Tex.) introduced to the pulmonary arterial trunk at the level of the aortic arch via the right carodid artery. Hemodynamic values were automatically calculated by the physiological data acquisition system, ADI Chart (ADI Instruments, Colorado Springs, Colo.) (Plato BioPharma).
(§1) Measurement of RV hypertrophy. After collection of the heart at necropsy, the atria and great vessels were removed. The RV was separated from the LV and S. The wet weights of the RV and LV+S were measured to calculate the Fulton Index.
(§2) Tissue preparation. Under anesthesia, the animals were exsanguinated, and the pulmonary circulation flushed with oxygenated (animals from Example 3 [MCT]) or heparizined (animals from Example 4 [Su5416/Hx]) saline. Trachea, lungs, and heart were removed intact from thoracic cavity and placed in ice-cold saline. Right lung lobes were removed, weighed, and immediately flash frozen in liquid nitrogen. A 10 mL syringe filled with fixative (10% NBF) with attached blunt tip needle (20 g) was used to inflate the left lung lobe and the airway was tied off to keep it consistently expanded. The left lung was then immersion fixed in 10% NBF for 48 hrs and then transferred to 70% EtOH for ≤5 days.
(§3) Histomorphometric analysis. Three, 3-5 μm thick, transverse sections of the left lung lobe were used for histomorphometric analysis. Overall disease severity scores were determined by light microscopic evaluation of hematoxylin and eosin (H&E)-stained lung sections by a board-certified veterinary pathologist. Scores ranged from 0 (absent), 1 (minimal), 2 (mild), 3 (moderate), 4 (marked) to 5 (severe) and were assigned according to the approximate percentage of the tissue affected by the tissue changes (inflammatory, degenerative, vascular and/or proliferative) characteristic of the PAH model. Average vessel wall thickness was evaluated using lung sections prepared with a modified Verhoeff-van Gieson elastin stain. Image analysis was performed using random field sampling (Visiopharm newCAST) of 10% of tissue area with observer-assisted identification of intra-acinar and pre-acinar vessels and application of a nucleator probe to measure vessel wall thickness. Fully muscularized intra-acinar vessel density was evaluated in a similar manner using dual αSMA/Ki67 IHC-stained sections and observer-assisted counting of ≥70% muscularized (i.e. SMA^+), transversely sectioned, ≤50 μm external diameter, intra-acinar vessels with an identifiable lumen. Vessel-associated Ki67^+ and pRb^+ cells were counted in αSMA/Ki67 IHC-and CD31/pRb IHC-stained lung sections, respectively, using random field sampling of 10% of tissue area and observer-assisted identification of Ki67^+ or pRb^+ cells associated with the walls (i.e. in the intima or media) of vessels 100 μm external diameter.
Immunohistochemistry. […]

rat Su5416/Hx PAH model = experiment: Rat SuHx (Su5416/hypoxia)-induced PAH model (hemodynamics, histomorphometry, IHC); format: in vivo; conditions: for lung weight vs vehicle/Su5416/Hx group / vessel-associated Ki67+ cells in the pulmonary vasculature (IHC) / vessel-associated pRb+ cells in the pulmonary vasculature (IHC): days 7 to 28; for MPAP: days 7 to 28, FIG. 4b; for Fulton Index: days 7 to 28, FIG. 4c; for muscularized intra-acinar vessel density relative to vehicle/Su5416/Hx group: days 7 to 28, FIG. 4e; for DPAP: days 7 to 28, FIG. 4i; for heart weight vs vehicle/Su5416/Hx group: days 7 to 28, FIG. 4j; for average vessel wall thickness, intra-acinar and pre-acinar vessels: days 7 to 28, FIG. 4d
Experimental: SuHx-induced Pulmonary Arterial Hypertension: Sprague-Dawley rats were obtained from Charles River Laboratories (200-300 g; vehicle control, n=5; all other groups, n=10). Rats received Semaxinib dissolved in DMSO on day 0, followed by housing in low (13%) oxygen until day 28. Sildenafil (30 mg/kg/dose; BID), Riociguat (10 mg/kg, QD) or Palbociclib (100 mg/kg; QD) was administered in vehicle (0.5% methylcellulose) from days 7-28. Terminal hemodynamic evaluations and necropsy were conducted on day 28 in a manner similar to the MCT study.
Hemodynamic measurements Su/Hx study: On day 28, animals were anesthetized via intramuscular injection of ketamine/xylazine (80/10 mg/kg). A Millar catheter was inserted into the pulmonary artery and pulmonary pressure and hemodynamics were measured as described by Stringer et al., (1981) Catheterization of the pulmonary artery in the closed-chest rat. J. Appl. Physiol. 51, 1047-1050. Hemodynamic values were calculated using the NOTOCORD-Hem software (NOTOCORD, Inc., Croissy sur Sienne, France) (CorDynamics).
as §1, §2, §3
Immunohistochemistry. Dual α-SMA/Ki67 nuclear antigen: All IHC steps were performed on 3 μm-thick, formalin-fixed, paraffin-embedded (FFPE) sections on Leica Bond Rx automated immunohistochemistry stainer. The instrument was programmed to bake and dewax the slides. […]

hPASMC = experiment: EdU cell proliferation assay, hPASMC; format: cell-based; conditions: Homo sapiens, 5% FBS, N = 6, FIG. 1e, read-out: hPASMC IC50 (nM), inhibition of proliferation
Experimental: (§4) Alternatively, rather than using BrdU, EdU (5-ethynyl-2′-deoxyuridine) can be used. Cells were first pre-incubated with different concentrations of the CDK inhibitor for 30 minutes, and then 5% FBS was added to stimulate cell proliferation. Cells were maintained for 24 h before the proliferation rate was evaluated using EDU Click-iT EdU Alexa Fluor® 647 HCS Assay (Thermofisher Scientific, USA). EdU was added to the medium 16 h before the quantification of EdU incorporation. Proliferation was quantified by scanning the 96-well plates using automated high content imaging platform equipped with appropriate fluorescence microscopic filters for DAPI (4′,6-Diamidino-2-Phenylindole) or Hoechst stain and Cyanine5 dyes as part of the Click-iT assay. Proliferating EdU positive cells detected at Cyanine5 were quantified and normalized to total cell number per well where the total cell number per cell was identified by DAPI or Hoechst signal. The % effect was then calculated:
(§5) The average (avg) amount (amt) of proliferating cells per concentration of CDK inhibitor with FBS present.
(§6) The minimum amount of proliferation (min amt of prolif'n) is based on cell numbers in the wells where FBS is not added and no CDK inhibitor is present.
(§7) The maximum amount of proliferation (max amt of prolif'n) is based on cell numbers in the wells where FBS is added and no CDK inhibitor is present.

hPAAF = experiment: EdU cell proliferation assay, hPAAF; format: cell-based; conditions: Homo sapiens, 5% FBS, N = 6, FIG. 1f, read-out: hPAAF IC50 (nM), inhibition of proliferation
Experimental: as §4, §5, §6, §7

rPASMC = experiment: EdU cell proliferation assay, rPASMC; format: cell-based; conditions: Rattus norvegicus, 5% FBS, N = 6, FIG. 1g, read-out: rPASMC IC50 (nM), inhibition of proliferation
Experimental: as §4, §5, §6, §7

phospho-Rb (Ser807/811) = experiment: In-cell western analysis of Rb phosphorylation in human PASMCs; format: cell-based; conditions: Homo sapiens, PASMC; 10% FBS; N = 6; FIG. 2c; read-out: Average IC50 (nM), inhibition of phosphorylation of Rb in hPASMCs
Experimental: In-cell western analysis. Primary PASMCs from normal human subjects were cultured and serum-starved as described above. Cells were first pre-incubated with different concentrations of palbociclib for 60 minutes, and then either 5% FBS or 10% FBS or 30 ng/ml PDGF-BB was added to stimulate cell proliferation and Rb phosphorylation. The effect of Palbociclib on Rb phosphorylation was evaluated 24 h later, using in-cell western assay according to the manufacturer's instructions (Li-Cor Biosciences, Lincoln, Nebr., USA). Phosphorylated Rb was measured using a rabbit monoclonal antibody anti-phospho-Rb (Ser807/811) (Cell Signaling Technology, Inc., Danvers, Mass., USA), followed by detection with IRDye 800CW infrared fluorescent dye-labeled goat anti-rabbit secondary antibody. Actin levels were measured using mouse anti-actin monoclonal antibodies (pan Ab-5) (Fisher Scientific Pittsburgh, Pa., USA; Sigma Aldrich, St. Louis, Mo., USA), and followed by detection with IRDye 680RD-labeled goat anti-mouse secondary antibody. See FIG. 2a where 5% FBS was used, FIG. 2b where PDGF-BB was used, and FIG. 2c where 10% FBS was used.

[2] = day 0-28, score scale 0-5, FIG. 3g

## CCCc1nn(C)c2c(=O)[nH]c(-c3cc(S(=O)(=O)N4CCN(C)CC4)ccc3OCC)nc12 [Sildenafil]
[1]; day 0-28, FIG. 3e
  density of fully muscularized intra-acinar vessels (αSMA staining): effective
[1]; day 0-28, FIG. 3d
  average vessel wall thickness relative to vehicle/MCT group: 0.76 x MCT
[1]; [2]
  disease severity scores, mean: 2.5
  disease severity scores, range: 1-4
[1]; day 14-28, FIG. 3d
  average vessel wall thickness (elastin staining), intra-acinar and pre-acinar pulmonary arteries, relative to vehicle/MCT group: little effect
[1]; dosed prophylactically day 0-28, sildenafil 50 mg/kg/dose PO BID, FIG. 3b
  PAH-related increase in MPAP: significantly reduced
[1]; prophylactic day 0-28, FIG. 3c
  PAH-related increase in Fulton Index: significantly reduced
[1]; prophylactic day 0-28, FIG. 3i
  PAH-related increase in DPAP: significantly reduced
[1]; prophylactic day 0-28, FIG. 3j
  PAH-related increase in heart weight: significantly reduced
[1]; prophylactic day 0-28, FIG. 3h
  PAH-related increase in SPAP: significantly reduced
[1]; therapeutic day 14-28
  DPAP: small and non-significant reduction
  Fulton Index: small and non-significant reduction
  MPAP: small and non-significant reduction
  SPAP: small and non-significant reduction
  heart weight: small and non-significant reduction
Rat Su5416/Hx PAH model
  lung weight vs vehicle/Su5416/Hx group: no change
  vessel-associated Ki67+ cells in the pulmonary vasculature (IHC): no significant beneficial effect
  vessel-associated pRb+ cells in the pulmonary vasculature (IHC): no significant beneficial effect
  MPAP: significantly reduced
  Fulton Index: only a slight reduction
  muscularized intra-acinar vessel density relative to vehicle/Su5416/Hx group: not statistically significantly different
  DPAP: significantly reduced
  heart weight vs vehicle/Su5416/Hx group: no change
  average vessel wall thickness, intra-acinar and pre-acinar vessels: not
Rat Su5416/Hx PAH model; days 7 to 28, FIG. 4h
  SPAP: significantly reduced

## CCN1CCN(Cc2ccc(Nc3ncc(F)c(-c4cc(F)c5nc(C)n(C(C)C)c5c4)n3)nc2)CC1 [Abemaciclib, 2-pyrimidinamine, N-(5-((4-ethyl-1-piperazinyl)methyl)-2-pyridinyl)-5-fluoro-4-(4-fluoro-2-methyl-1-(1-methylethyl)-1H-benzimidazol-6-yl)]
hPASMC
  IC50: 6.5 nM
hPAAF
  IC50: 1.2 nM
rPASMC
  IC50: 13 nM
phospho-Rb (Ser807/811)
  IC50: 262 nM

## COC(=O)N(C)c1c(N)nc(-c2nn(Cc3ccccc3F)c3ncccc23)nc1N [Riociguat]
Rat Su5416/Hx PAH model
  lung weight vs vehicle/Su5416/Hx group: no change
  vessel-associated Ki67+ cells in the pulmonary vasculature (IHC): no significant beneficial effect
  vessel-associated pRb+ cells in the pulmonary vasculature (IHC): no significant beneficial effect
  MPAP: significantly reduced
  Fulton Index: only a slight reduction
  muscularized intra-acinar vessel density relative to vehicle/Su5416/Hx group: not statistically significantly different
  DPAP: significantly reduced
  heart weight vs vehicle/Su5416/Hx group: no change
  average vessel wall thickness, intra-acinar and pre-acinar vessels: not

## CN(C)C(=O)c1cc2cnc(Nc3ccc(N4CCNCC4)cn3)nc2n1C1CCCC1 [Ribociclib, 7-cyclopentyl-N, N-dimethyl-2-((5-(piperazin-1-yl)pyridin-2-yl)amino)-7H-pyrrolo[2,3-d]pyrimidine-6-carboxamide]
hPASMC
  IC50: 0.5 nM
hPAAF
  IC50: 0.8 nM
rPASMC
  IC50: 28.6 nM
phospho-Rb (Ser807/811)
  IC50: 352 nM
